# Tests used:
# Dahlen soil = test: Soil microcosm incubation (nitrification of applied ammonium), Dahlen soil; settings: for Nitrified NH4+—N (%) Day 3 / Nitrified NH4+—N (%) Day 7 / Nitrified NH4+—N (%) Day 14 / Nitrified NH4+—N (%) Day 21 / Nitrified NH4+—N (%) Day 28: 10 mol %
# Experimental: (§1) The soil used in this study was collected from four different locations in Victoria, Australia: (i) a wheat cropping soil from Horsham (36° 45′S, 142° 07′ E), (ii) a rotational cropping soil from Dahlen (36° 37′S, 142° 09′ E), (iii) a vegetable growing soil from Clyde (38° 08′S, 145° 20′ E), and (iv) a pasture soil from Terang (38° 15′S, 142° 52′E). In addition, a sugarcane cropping soil from South Johnstone in northern Queensland (17° 34′S, 145° 57′ E) was also studied. The water content of the soil was calculated before commencing each experiment, from samples that were oven-dried to constant weight. The soil's water-filled pore space (WFPS) was in the range 52%-61%, which is within the recommended 50-70% range for microbial activity due to oxygen and nutrient availability (Fichtner, T., et al., Applied Sciences, 2019, 9, 496).
# (§2) Soil microcosm incubations were carried out in 250 ml polypropylene specimen containers (Sarstedt, Germany), containing 18.24 g oven dry-weight equivalent of soil. Microcosms were re-wetted and pre-incubated at the test temperature for seven days to revive soil microbial activity. Following pre-incubation, the remaining volume to reach the desired water-filled pore spaces (WFPS %) was applied as one of the following treatment solutions; (NH4)2SO4(Control), (NH4)2SO4+DMPP, or (NH4)2SO4+one of Compounds 1-23. Each treatment was applied in triplicate per soil type, so that n=3 at each time point.
# (§3) Treatment solutions were prepared such that each microcosm received (NH4)2SO4 at a rate of 100 mg N per kg soil, Compounds 1-23 at 10 mol % of applied N, or DMPP at one of 1.5, 3.6 or 10 mol % of applied N, referred to as L-DMPP, M-DMPP or H-DMPP respectively.
# (§4) The microcosms were incubated for 0, 3, 7, 14, 21 or 28 days, where day 0 samples were extracted following 1-hour incubation post-treatment. Soil microcosms were aerated and moisture levels were replenished based on weight loss every few days throughout the incubation period.
# (§5) At the end of each incubation period, soil microcosms were destructively sampled by treatment with 2M KCl (100 mL). After shaking for 1 hour, soil-KCl solutions were filtered (Whatman 42) before storing the filtrates at −20° C. until the conclusion of the experiment. All KCl extracts were then analysed by Segmented Flow Analysis (San++, Skalar, Breda, The Netherlands) for the concentration of nitrogen from ammonium (NH4^+—N) and nitrogen from NO3 and NO2 (NOx^−—N) after appropriate dilutions. Results are reported as the mean of three replicates, errors reported are standard errors of the mean.
# (§6) Nitrification calculations were performed as previously reported (Aulakh, M., et al., Biology and Fertility of Soils 2001, 33, 258-263; Mahmood, T., et al., Soil Research 2017, 55, 715-722) without correction for the initial baseline concentrations of NH4^+—N or NO3^− N in the untreated soil. For each treatment nitrified NH4^+—N (%) was calculated according to eqn. 1:
# (§7) where [NH4^+—N]0 is the NH4^+—N concentration (in mg N kg^−1 soil) of the soil on day 0 and [NH4^+—N]t is the NH4^+—N concentration (in mg N kg^−1 soil) of the soil at a given time point t.
# (§8) NOx^−—N accumulation rates (mg NOx^−—N/kg soil/day) over the 28-day incubation experiments were calculated for each treatment as in the following (eqn. 2):
# (§9) [NOx^−—N]t=0 and [NOx^−—N]t=28 are the combined concentrations of nitrite (NO2) and nitrate (NO3) in the soil (in mg N kg^−1 soil) on day 0 and day 28, respectively.
# Horsham soil = test: Soil microcosm incubation (nitrification of applied ammonium), Horsham soil
# Experimental: as §1, §2, §3, §4, §5, §6, §7, §8, §9
# South Johnstone soil = test: Soil microcosm incubation (nitrification of applied ammonium), South Johnstone soil; settings: for Nitrified NH4+—N (%) Day 3 / Nitrified NH4+—N (%) Day 7 / Nitrified NH4+—N (%) Day 14 / Nitrified NH4+—N (%) Day 21 / Nitrified NH4+—N (%) Day 28: 10 mol %
# Experimental: as §1, §2, §3, §4, §5, §6, §7
# [1] = Table 4, Dahlen soil pH 7.3, 25° C.
# [2] = Table 4, Dahlen soil pH 7.3, 35° C.
# [3] = Table 5, Dahlen soil pH 7.3, 25° C.
# [4] = Table 5, Dahlen soil pH 7.3, 35° C.
# [5] = Horsham soil pH 8.8, 25° C., inhibitors 10 mol % of applied N
# [6] = Horsham soil pH 8.8, 25° C., 10 mol %
# [7] = Horsham soil pH 8.8, 35° C., 10 mol %
# [8] = South Johnstone soil pH 5.0, 25° C., negative = NH4+—N higher than day 0 (mineralisation)
# [9] = South Johnstone soil pH 5.0, 25° C.
# [10] = South Johnstone soil pH 5.0, 25° C., day 28
# [11] = South Johnstone soil pH 5.0, 35° C.
# [12] = South Johnstone soil pH 5.0, 35° C., day 28
# [13] = Dahlen soil, 35° C., after 28 days
smiles,measurement,setting,value
"Cc1c[nH]nc1C.O=P(O)(O)O [DMPP, 3,4-dimethylpyrazole phosphate, reference compound]",performance at higher temperature,"Dahlen soil; Dahlen soil, 35° C. vs 25° C.",performed significantly poorer at the higher temperature
same,retaining NH4+—N vs (NH4)2SO4-treated control by day 28,"Dahlen soil; Dahlen soil, 35° C., Table 5 test",remain highly effective
same,nitrified ammonia,"Dahlen soil; Dahlen soil, 35° C., day 21 (Table 5)",52%
same,Nitrified NH4+—N (%) Day 3,Dahlen soil; [1],2.1 ± 2.8%
same,Nitrified NH4+—N (%) Day 7,Dahlen soil; [1],11.7 ± 6.7%
same,Nitrified NH4+—N (%) Day 14,Dahlen soil; [1],17.3 ± 12.7%
same,Nitrified NH4+—N (%) Day 21,Dahlen soil; [1],18.2 ± 6.6%
same,Nitrified NH4+—N (%) Day 28,Dahlen soil; [1],18.6 ± 4.9%
same,Nitrified NH4+—N (%) Day 3,Dahlen soil; [2],2.4 ± 3.0%
same,Nitrified NH4+—N (%) Day 7,Dahlen soil; [2],24.8 ± 2.7%
same,Nitrified NH4+—N (%) Day 14,Dahlen soil; [2],25.6 ± 3.8%
same,Nitrified NH4+—N (%) Day 21,Dahlen soil; [2],48.3 ± 6.4%
same,Nitrified NH4+—N (%) Day 28,Dahlen soil; [2],60.5 ± 8.4%
same,Nitrified NH4+—N (%) Day 3,"Dahlen soil; Table 5 (further comparative test), Dahlen soil pH 7.3, 25° C.",4.9 ± 3.1%
same,Nitrified NH4+—N (%) Day 7,Dahlen soil; [3],11.0 ± 3.2%
same,Nitrified NH4+—N (%) Day 14,Dahlen soil; [3],17.4 ± 4.2%
same,Nitrified NH4+—N (%) Day 21,Dahlen soil; [3],28.7 ± 5.2%
same,Nitrified NH4+—N (%) Day 28,Dahlen soil; [3],21.8 ± 3.3%
same,Nitrified NH4+—N (%) Day 3,Dahlen soil; [4],15.3 ± 2.9%
same,Nitrified NH4+—N (%) Day 7,Dahlen soil; [4],15.8 ± 2.5%
same,Nitrified NH4+—N (%) Day 14,Dahlen soil; [4],16.0 ± 6.0%
same,Nitrified NH4+—N (%) Day 21,Dahlen soil; [4],51.5 ± 5.4%
same,Nitrified NH4+—N (%) Day 28,Dahlen soil; [4],38.5 ± 2.9%
same,Nitrified NH4+—N (%) Day 3,Horsham soil; [5],−6.9 ± 2.8%
same,Nitrified NH4+—N (%) Day 7,Horsham soil; [6],8.5 ± 2.8%
same,Nitrified NH4+—N (%) Day 14,Horsham soil; [6],37.2 ± 2.3%
same,Nitrified NH4+—N (%) Day 21,Horsham soil; [6],75.7 ± 5.4%
same,Nitrified NH4+—N (%) Day 28,Horsham soil; [6],76.2 ± 2.1%
same,Nitrified NH4+—N (%) Day 3,Horsham soil; [7],7.9 ± 3.0%
same,Nitrified NH4+—N (%) Day 7,Horsham soil; [7],18.9 ± 2.8%
same,Nitrified NH4+—N (%) Day 14,Horsham soil; [7],32.3 ± 4.1%
same,Nitrified NH4+—N (%) Day 21,Horsham soil; [7],46.6 ± 5.9%
same,Nitrified NH4+—N (%) Day 28,Horsham soil; [7],64.5 ± 12.7%
same,NOx−—N accumulation: effect of temperature (25° C. vs 35° C.),"Horsham soil; Horsham soil, 28-day incubation",greatest increase in production rate at the higher test temperature
same,retaining NH4+ and preventing NOx production (statistics vs control),"Horsham soil; Horsham soil, 35° C.",performed statistically better
same,NH4+—N consumption,"Horsham soil; Horsham soil, 35° C., after 28 days",65%
same,Nitrified NH4+—N (%) Day 3,South Johnstone soil; [8],−12.5 ± 8.8%
same,Nitrified NH4+—N (%) Day 7,South Johnstone soil; [9],−10.3 ± 0.7%
same,Nitrified NH4+—N (%) Day 14,South Johnstone soil; [9],−12.5 ± 0.6%
same,Nitrified NH4+—N (%) Day 21,South Johnstone soil; [9],−12.0 ± 1.6%
same,Nitrified NH4+—N (%) Day 28,South Johnstone soil; [10],−7.5 ± 0.5%
same,Nitrified NH4+—N (%) Day 3,South Johnstone soil; [11],−12.3 ± 1.2%
same,Nitrified NH4+—N (%) Day 7,South Johnstone soil; [11],−25.3 ± 0.9%
same,Nitrified NH4+—N (%) Day 14,South Johnstone soil; [11],−28.1 ± 1.3%
same,Nitrified NH4+—N (%) Day 21,South Johnstone soil; [11],−23.0 ± 2.3%
same,Nitrified NH4+—N (%) Day 28,South Johnstone soil; [12],−0.90 ± 2.3%
same,"effectiveness among the treatments (NH4+—N retention, NOx−—N growth)","South Johnstone soil; South Johnstone soil, 25° C., days 21 and 28",least effective
"CCCc1cn(CCC)nn1 [Compound 16, 1,4-dipropyl-1H-1,2,3-triazole]",retaining NH4+—N vs uninhibited control treatment and DMPP,"Dahlen soil; Dahlen soil, 25° C., after 28 days",performed statistically better
same,NOx−—N accumulation rate,"Dahlen soil; Dahlen soil, 35° C., 28-day incubation",1.8 mg NOx−—N/kg soil/day
same,ammonia consumption,Dahlen soil; [13],17%
same,retaining NH4+ vs both DMPP treatment and control treatment,Dahlen soil; [13],performed statistically better
same,Nitrified NH4+—N (%) Day 3,Dahlen soil; [1],8.8 ± 3.3%
same,Nitrified NH4+—N (%) Day 7,Dahlen soil; [1],15.6 ± 5.0%
same,Nitrified NH4+—N (%) Day 14,Dahlen soil; [1],16.4 ± 28.7%
same,Nitrified NH4+—N (%) Day 21,Dahlen soil; [1],26.9 ± 4.6%
same,Nitrified NH4+—N (%) Day 28,Dahlen soil; [1],37.3 ± 4.4%
same,Nitrified NH4+—N (%) Day 3,Dahlen soil; [2],1.5 ± 1.4%
same,Nitrified NH4+—N (%) Day 7,Dahlen soil; [2],6.0 ± 1.5%
same,Nitrified NH4+—N (%) Day 14,Dahlen soil; [2],16.1 ± 4.5%
same,Nitrified NH4+—N (%) Day 21,Dahlen soil; [2],29.8 ± 1.2%
same,Nitrified NH4+—N (%) Day 28,Dahlen soil; [2],16.9 ± 2.6%
same,Nitrified NH4+—N (%) Day 3,Horsham soil; [5],8.9 ± 3.4%
same,Nitrified NH4+—N (%) Day 7,Horsham soil; [6],24.9 ± 3.0%
same,Nitrified NH4+—N (%) Day 14,Horsham soil; [6],44.2 ± 3.3%
same,Nitrified NH4+—N (%) Day 21,Horsham soil; [6],57.5 ± 3.4%
same,Nitrified NH4+—N (%) Day 28,Horsham soil; [6],70.9 ± 3.9%
same,Nitrified NH4+—N (%) Day 3,Horsham soil; [7],2.5 ± 4.5%
same,Nitrified NH4+—N (%) Day 7,Horsham soil; [7],22.3 ± 4.3%
same,Nitrified NH4+—N (%) Day 14,Horsham soil; [7],42.3 ± 4.6%
same,Nitrified NH4+—N (%) Day 21,Horsham soil; [7],74.9 ± 6.1%
same,Nitrified NH4+—N (%) Day 28,Horsham soil; [7],83.7 ± 6.1%
same,retaining NH4+ vs uninhibited control treatment,"Horsham soil; Horsham soil, 25° C., after 28 days",performed statistically better
same,nitrification rates vs uninhibited control treatment,"Horsham soil; Horsham soil, 35° C.",lower nitrification rates than the uninhibited control treatment
same,Nitrified NH4+—N (%) Day 3,South Johnstone soil; [8],−6.3 ± 0.8%
same,Nitrified NH4+—N (%) Day 7,South Johnstone soil; [9],−11.5 ± 0.8%
same,Nitrified NH4+—N (%) Day 14,South Johnstone soil; [9],−14.4 ± 0.7%
same,Nitrified NH4+—N (%) Day 21,South Johnstone soil; [9],−16.8 ± 1.2%
same,Nitrified NH4+—N (%) Day 28,South Johnstone soil; [10],−13.2 ± 0.7%
same,Nitrified NH4+—N (%) Day 3,South Johnstone soil; [11],−14.7 ± 1.9%
same,Nitrified NH4+—N (%) Day 7,South Johnstone soil; [11],−26.3 ± 1.7%
same,Nitrified NH4+—N (%) Day 14,South Johnstone soil; [11],−35.7 ± 2.4%
same,Nitrified NH4+—N (%) Day 21,South Johnstone soil; [11],−35.7 ± 0.6%
same,Nitrified NH4+—N (%) Day 28,South Johnstone soil; [12],−18.4 ± 2.3%
same,retaining NH4+—N vs DMPP,"South Johnstone soil; South Johnstone soil, 35° C.",performed statistically better than DMPP
same,retaining NH4+—N and slowing NOx−—N growth vs fertilised control,"South Johnstone soil; South Johnstone soil, 35° C., day 28",performed statistically better than the fertilised control

# Source: patent US20220324770A1, “NITRIFICATION INHIBITORS” (The University of Melbourne, priority 2019, published 2022)
